Laboratory results taken from PubChem BioAssay AID330 (DTP/NCI, 2004).
“And” between values parts separate entries of the source, which are not always exact repeats. Identical values can stand only once. Inconclusive results and toxic doses are left out. How the source made its calls: active means survival T/C of 150% or more; inactive means T/C below 125% in these data.

Test system: P388 leukemia ip, CD2F1 mice, survival T/C
Test: NCI In Vivo Anticancer Drug Screen. Data for tumor model P388 Leukemia (intraperitoneal) in CD2F1 (CDF1) mice
Details: endpoint: median survival time, higher = longer survival
Procedure, shortened: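 Mice carrying the transplanted tumor received test compound or vehicle. Survival was recorded in each group, and the value is the treated-group measurement divided by that of the vehicle-treated control group.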

[1] = dose: 12.5 mg/kg/injection, schedule: Q01DX005 (ip), vehicle: saline
[2] = dose: 25.0 mg/kg/injection, schedule: Q01DX005 (ip), vehicle: saline
[3] = dose: 60.0 mg/kg/injection, schedule: Q01DX005 (ip), vehicle: saline with Tween-80
[4] = dose: 120.0 mg/kg/injection, schedule: Q01DX005 (ip), vehicle: saline with Tween-80
[5] = dose: 240.0 mg/kg/injection, schedule: Q01DX005 (ip), vehicle: saline with Tween-80
[6] = dose: 25.0 mg/kg/injection, schedule: Q01DX005 (ip), vehicle: Klucel (hydroxypropylcellulose) (HPC)
[7] = dose: 50.0 mg/kg/injection, schedule: Q01DX005 (ip), vehicle: Klucel (hydroxypropylcellulose) (HPC)
[8] = dose: 60.0 mg/kg/injection, schedule: Q01DX005 (ip), vehicle: Klucel (hydroxypropylcellulose) (HPC)
[9] = dose: 120.0 mg/kg/injection, schedule: Q01DX005 (ip), vehicle: Klucel (hydroxypropylcellulose) (HPC)
[10] = dose: 240.0 mg/kg/injection, schedule: Q01DX005 (ip), vehicle: Klucel (hydroxypropylcellulose) (HPC)
[11] = dose: 50.0 mg/kg/injection, schedule: Q01DX005 (ip), vehicle: saline with Tween-80
[12] = dose: 100.0 mg/kg/injection, schedule: Q01DX005 (ip), vehicle: saline with Tween-80
[13] = dose: 200.0 mg/kg/injection, schedule: Q01DX005 (ip), vehicle: saline with Tween-80
[14] = dose: 100.0 mg/kg/injection, schedule: Q04DX003 (ip), vehicle: saline
[15] = dose: 200.0 mg/kg/injection, schedule: Q04DX003 (ip), vehicle: saline
[16] = dose: 400.0 mg/kg/injection, schedule: Q04DX003 (ip), vehicle: saline
[17] = dose: 50.0 mg/kg/injection, schedule: Q01DX009 (ip), vehicle: saline with Tween-80
[18] = dose: 100.0 mg/kg/injection, schedule: Q01DX009 (ip), vehicle: saline with Tween-80
[19] = dose: 50.0 mg/kg/injection, schedule: Q01DX005 (ip), vehicle: saline
[20] = dose: 12.5 mg/kg/injection, schedule: Q01DX009 (ip), vehicle: saline
[21] = dose: 25.0 mg/kg/injection, schedule: Q01DX009 (ip), vehicle: saline
[22] = dose: 50.0 mg/kg/injection, schedule: Q01DX009 (ip), vehicle: saline
[23] = dose: 100.0 mg/kg/injection, schedule: Q01DX009 (ip), vehicle: saline

Measured: T/C

COC1CCCC=C1[N+](=O)[O-] (centres undefined)
inactive: dose: 6.25 mg/kg/injection, schedule: Q01DX005 (ip), vehicle: saline 108 % of control | [1] 116 % of control | [2] 115 % of control

O=C(C(=O)C(F)(F)C(F)(F)C(F)(F)F)c1ccccc1
inactive: dose: 50.0 mg/kg/injection, schedule: Q01DX005 (ip), vehicle: saline + Tween-80 + alcohol 102 % of control | dose: 100.0 mg/kg/injection, schedule: Q01DX005 (ip), vehicle: saline + Tween-80 + alcohol 97 % of control

CCOc1ccc(/C=N/NC(=O)C(O)c2ccccc2)cc1OC (centres undefined)
inactive: [3] 96 % of control | [4] 100 % of control | [5] 94 % of control

O=C1c2ccccc2CCC1[n+]1ccc2ccccc2c1 (centres undefined)
inactive: dose: 12.5 mg/kg/injection, schedule: Q01DX005 (ip), vehicle: Klucel (hydroxypropylcellulose) (HPC) 102 % of control | [6] 104 % of control | [7] 106 % of control and 111 % of control

CC1=C(O)c2cc3c(cc2C(=O)C1=O)OCO3
inactive: [8] 98 % of control | [9] 88 % of control | [10] 92 % of control

Nc1nc2[nH]c(=S)[nH]c2c(=O)[nH]1
inactive: [11] 92 % of control | [12] 92 % of control | [13] 95 % of control

C(=N/n1nnc(-c2ccccc2)n1)/c1ccccc1
inactive: [11] 101 % of control | [12] 92 % of control

O=C(CN1CCCCC1)c1c(-c2ccccc2)[nH]c2ccccc12
inactive: [14] 108 % of control | [15] 99 % of control | [16] 93 % of control

CN1C(=O)C(CCCN=C(N)N)NC1=S (centres undefined)
inactive: dose: 60.0 mg/kg/injection, schedule: Q01DX005 (ip), vehicle: saline 98 % of control | dose: 120.0 mg/kg/injection, schedule: Q01DX005 (ip), vehicle: saline 111 % of control | dose: 240.0 mg/kg/injection, schedule: Q01DX005 (ip), vehicle: saline 104 % of control

c1ccc(CSc2nnc(NC3CCCCC3)s2)cc1
inactive: [17] 96 % of control | [18] 96 % of control | dose: 200.0 mg/kg/injection, schedule: Q01DX009 (ip), vehicle: saline with Tween-80 100 % of control

N#Cc1ccc(OC(=O)Nc2ccc(F)cc2)cc1
inactive: [3] 106 % of control | [4] 104 % of control

CCCCCCC1OCN2CCCCC12 (centres undefined)
inactive: [19] 105 % of control | dose: 100.0 mg/kg/injection, schedule: Q01DX005 (ip), vehicle: saline 107 % of control | dose: 200.0 mg/kg/injection, schedule: Q01DX005 (ip), vehicle: saline 109 % of control

CCCCN(CCCC)C(=O)C(O)C(=O)N(CCCC)CCCC
inactive: [6] 104 % of control | [7] 104 % of control | dose: 100.0 mg/kg/injection, schedule: Q01DX005 (ip), vehicle: Klucel (hydroxypropylcellulose) (HPC) 98 % of control | dose: 200.0 mg/kg/injection, schedule: Q01DX005 (ip), vehicle: Klucel (hydroxypropylcellulose) (HPC) 109 % of control

O=C1CSC(c2ccc(F)cc2)N1CCN1C(=O)CSC1c1ccc(F)cc1 (centres undefined)
inactive: [3] 106 % of control | [4] 100 % of control | [5] 95 % of control

O=C1CCOc2cccc(c2)OCCC(=O)OCCCOC(=O)CCOc2cccc(c2)OCCC(=O)OCCCO1
inactive: [1] 103 % of control | [2] 107 % of control | [7] 96 % of control | [19] 98 % of control

CC(=O)CC(=O)CCC(=O)Nc1cccc([N+](=O)[O-])c1
inactive: [3] 106 % of control | [4] 100 % of control | [5] 105 % of control

CN1CCC(=C2c3ccccc3CCc3sccc32)CC1
inactive: [20] 103 % of control | [21] 104 % of control | [22] 101 % of control and 103 % of control | [23] 108 % of control

O=C(Nn1c(=O)[nH]c2ccccc2c1=O)c1ccc(Cl)cc1
inactive: [8] 98 % of control | [9] 93 % of control | [10] 90 % of control

O=C1CCC2(c3ccccc3)CCCN=C2N1 (centres undefined)
inactive: dose: 100.0 mg/kg/injection, schedule: Q01DX001 (ip), vehicle: saline with Tween-80 104 % of control | dose: 200.0 mg/kg/injection, schedule: Q01DX001 (ip), vehicle: saline with Tween-80 99 % of control

Cn1cc(CCc2cc[n+](CCC[n+]3ccc(CCc4cn(C)c5ccccc45)cc3)cc2)c2ccccc21
inactive: dose: 6.25 mg/kg/injection, schedule: Q01DX009 (ip), vehicle: Klucel (hydroxypropylcellulose) (HPC) 104 % of control | dose: 12.5 mg/kg/injection, schedule: Q01DX009 (ip), vehicle: Klucel (hydroxypropylcellulose) (HPC) 106 % of control

Cn1c2ccccc2c2oc(CO)cc(=O)c21
inactive: [8] 95 % of control | [9] 89 % of control | [10] 91 % of control

CC[Se](CC)CC.CC[Se](CC)CC.C[CH2][Ge]([CH2]C)[O][Ge]([CH2]C)[CH2]C
inactive: dose: 3.12 mg/kg/injection, schedule: Q01DX009 (ip), vehicle: saline 99 % of control and 95 % of control | dose: 6.25 mg/kg/injection, schedule: Q01DX009 (ip), vehicle: saline 96 % of control (2×) and 97 % of control | [20] 101 % of control and 107 % of control and 96 % of control | [21] 117 % of control and 118 % of control

O=C(NN1C(=O)CSC1c1ccccc1F)c1ccncc1 (centres undefined)
inactive: [11] 93 % of control | [12] 108 % of control | [13] 97 % of control

Cc1cccc(Cl)c1NC(=O)Nc1cccc(C#N)c1
inactive: [3] 93 % of control | [4] 89 % of control | [5] 98 % of control

CCOc1ccc(NC(=S)NC2OC(COC(C)=O)C(OC(C)=O)C(OC(C)=O)C2OC(C)=O)cc1 (centres undefined)
inactive: [11] 101 % of control | [12] 91 % of control | [13] 92 % of control

COc1ccc(S(=O)(=O)N/N=C/c2ncc[nH]2)cc1
inactive: dose: 25.0 mg/kg/injection, schedule: Q01DX005 (ip), vehicle: saline with Tween-80 99 % of control | [11] 99 % of control | [12] 100 % of control

Cc1sc([S-])n[n+]1-c1ccccc1
inactive: dose: 6.25 mg/kg/injection, schedule: Q01DX009 (ip), vehicle: distilled water + Tween-80 93 % of control | dose: 12.5 mg/kg/injection, schedule: Q01DX009 (ip), vehicle: distilled water + Tween-80 90 % of control | dose: 25.0 mg/kg/injection, schedule: Q01DX009 (ip), vehicle: distilled water + Tween-80 96 % of control | dose: 50.0 mg/kg/injection, schedule: Q01DX009 (ip), vehicle: distilled water + Tween-80 97 % of control | dose: 100.0 mg/kg/injection, schedule: Q01DX009 (ip), vehicle: distilled water + Tween-80 110 % of control | dose: 200.0 mg/kg/injection, schedule: Q01DX009 (ip), vehicle: distilled water + Tween-80 105 % of control

CC(=O)Oc1[nH]c(=O)c2cccc3c2c1CCC3
inactive: dose: 25.0 mg/kg/injection, schedule: Q01DX009 (ip), vehicle: saline with Tween-80 102 % of control | [17] 101 % of control and 102 % of control | [18] 108 % of control and 112 % of control

CCCCCC(C)[P+](c1ccccc1)(c1ccccc1)c1ccccc1 (centres undefined)
inactive: dose: 0.39 mg/kg/injection, schedule: Q01DX009 (ip), vehicle: saline with Tween-80 101 % of control | dose: 0.78 mg/kg/injection, schedule: Q01DX009 (ip), vehicle: saline with Tween-80 114 % of control and 120 % of control

C/C(=C(/O)c1ccccc1)c1nc2ccc(Cl)cc2[nH]c1=O
inactive: dose: 60.0 mg/kg/injection, schedule: Q01DX005 (ip), vehicle: Klucel + Tween-80 103 % of control | dose: 120.0 mg/kg/injection, schedule: Q01DX005 (ip), vehicle: Klucel + Tween-80 94 % of control | dose: 240.0 mg/kg/injection, schedule: Q01DX005 (ip), vehicle: Klucel + Tween-80 91 % of control

CC1(C)CC(C)(C)[P+]1(C)c1ccccc1
inactive: dose: 25.0 mg/kg/injection, schedule: Q01DX001 (ip), vehicle: saline 107 % of control | dose: 50.0 mg/kg/injection, schedule: Q01DX001 (ip), vehicle: saline 103 % of control

COc1cc2ccnc(Cc3ccc4c(c3)OCO4)c2cc1OC
inactive: [22] 115 % of control | [23] 95 % of control | [14] 100 % of control | dose: 200.0 mg/kg/injection, schedule: Q01DX009 (ip), vehicle: saline 100 % of control | [15] 100 % of control | [16] 95 % of control
